Experimental data published in patent US10487054B2, “Therapeutic compounds” (REGENTS OF THE UNIVERSITY OF MINNESOTA, priority 2017, dated 2019).

How the values were obtained:
SKH-1 hairless mice = test: SUV-induced mouse skin tumorigenesis, early-stage prevention model; type: in vivo
Experimental: Tumor volume was calculated according to the following formula: tumor volume (mm^3)=length×width×height×0.52. […] For 4B and 4C, data are represented as mean values±S.D. and significant differences were determined by one-way ANOVA. The asterisk (*) indicates a significant decrease compared to the SUV only or the vehicle and SUV-treated groups (***, p<0.001). […] Dorsal trunk skin samples were harvested and stained with H&E (left panels) or with an antibody to detect PCNA (right panels). […] Expression of PCNA was quantified using Image-Pro Plus software and stained cells were counted from 5 separate areas on each slide (lower panel). An average of 3 samples was calculated per group. Data are expressed as mean percent of control±S.D. and the asterisks indicate a significant difference in PCNA expression (***, p<0.001). […] The expression levels of phosphorylated and total proteins were analyzed by Western blot.
Mice were weighed once a week until the end of the study at week 28. […] SKH-1 hairless mice were treated as described in Materials and Methods. The mice in the control groups (n=9) received no vehicle/no SUV (n=3), vehicle/no SUV (n=3), or 1 mg […]/no SUV (n=3), respectively. The mice in the SUV treated group received SUV only (n=12) and the mice in the vehicle/SUV-treated group (n=12) were treated with oil-in-water emulsion cream before SUV exposure. The mice in the 0.1 mg/SUV or 1 mg/SUV groups (n=12 each) received treatment with compound 1 (0.1 or 1 mg, respectively) before SUV exposure. The frequency of irradiation was set at 3 times a week for 15 weeks. The respective doses of oil-in-water emulsion cream or compound 1 were applied topically to the dorsal area. Tumor incidence and multiplicity were recorded weekly until the end of the experiment at week 28.
Female SKH-1 hairless mice were purchased from Charles River and were acclimated for 2 weeks before the study and had free access to food and water. All animals were maintained according to the guidelines approved by the University of Minnesota Institutional Animal Care and Use Committee (IACUC). The animals were housed in climate-controlled quarters with a 12-h light/dark cycle. The skin carcinogenesis experiments were conducted using 6-8 wk old mice with a mean body weight of 25 g. Skin carcinogenesis was induced by a solar simulated ultraviolet irradiation system. The SUV irradiation source (Q-Lab Corporation, Westlake, Ohio) emitted at wavelengths of 295 to 365 nm and the peak emission was 340 nm.
The two mouse models included an early-stage prevention model and a late-stage prevention model. These models were designed for detecting either the respective chemopreventive effect or the potential therapeutic value of compound 1 against SUV-induced skin damage and carcinogenesis. For the early-stage prevention study, SKH-1 mice were divided into 7 groups and an oil-in-water emulsion cream was applied topically as the vehicle with or without compound 1. The three control groups included 1) mice (n=3) not treated with vehicle or SUV; 2) mice (n=3) treated with vehicle but no SUV; and 3) mice (n=3) treated with 1 mg compound 1 in vehicle but not exposed to SUV. Experimental groups included 1) mice (n=12) treated with SUV only; 2) mice (n=12) treated with vehicle followed by SUV 1 h later; 3) mice (n=12 each group) treated with topical application of 0.1 or 1 mg of compound 1 in vehicle 1 h before SUV irradiation. The topical applications and SUV treatment were applied 3 times a week for a total of 15 weeks. At 15 weeks, SUV irradiation was discontinued and topical applications continued with tumor growth monitoring for an additional 13 weeks until week 28 at which time mice were euthanized and tissues harvested.
At week 1, mice were irradiated with SUV at a dose of 36 kJ/m^2 UVA and 1.8 kJ/m^2 UVB. At week 6, the dose of SUV reached 60 kJ/m^2 UVA and 2.9 kJ/m^2 UVB and this dose was maintained from week 6 to week 15. […]

MEK1/2 = test: Pull-down assay with HaCaT cell lysates; type: binding, human; settings: HaCaT cell lysates 500 μg, Western blot
Experimental: Active TOPK (200 ng) was incubated with different concentrations of ATP (0, 10 or 100 μM) and then mixed with compound 1-conjugated Sepharose 4B beads or Sepharose 4B beads. Proteins were pulled down and analyzed by Western blot. Data are representative of 3 independent experiments that gave similar results. FIGS. 2C and 2D show compound 1 binds to either TOPK (2C) or MEK1/2 (2D) ex vivo. Lysates from HaCaT cells (500 μg) were incubated with compound 1-conjugated Sepharose 4B beads or Sepharose 4B beads alone and the pulled-down proteins were analyzed by Western blot. Data are representative of 3 independent experiments that gave similar results. FIGS. 2E and 2F show compound 1 inhibits TOPK kinase (2E) activity but not MEK1 kinase (2F) activity in vitro. Active TOPK (200 ng) was mixed with compound 1 (0, 0.5, 1, 3, or 5 μM) or HI-032 (TOPK inhibitor, 10 μM) and then incubated with a [γ-^32P] ATP mixture. Similarly, MEK1 (200 ng) was mixed with compound 1 (0, 0.5, 1, 3, 5, or 10 μM) or PD098059 (MEK1 inhibitor, 5 μM) and then incubated with a [γ-^32P] ATP mixture. For 2E and 2F, the results are visualized by autoradiography and Coomassie blue staining serves as a loading control. Data are representative of 3 independent experiments that gave similar results. […]

With `O=C1Nc2ccc(C34CC5CC(CC(C5)C3)C4)cc2C1=NO` [compound 1, 5-(adamantan-1-yl)-3-(hydroxyimino)indolin-2-one] the SUV-induced tumor volume (SKH-1 hairless mice; early-stage model (FIG. 4B)) was “suppresses”, the SUV-induced epidermal thickness (SKH-1 hairless mice; early-stage model, 0.1 or 1 mg, H&E) was “decreased” and the “SUV-induced phosphorylation of ERK1/2, p38, and JNKs in mouse skin” value (SKH-1 hairless mice; early-stage model, Western blot) was “dramatically suppressed”. For the same compound, the “expression of PCNA” value (SKH-1 hairless mice; early-stage model, immunohistochemistry of skin) was “decreased”, the “average number of SUV-induced tumors” value (SKH-1 hairless mice; early-stage model, week 28 (FIG. 4C)) was “suppresses” and the SUV-induced papilloma formation (SKH-1 hairless mice; early-stage prevention group, topical 0.1 or 1 mg) was “total inhibition”. For the same compound, the body weight (SKH-1 hairless mice; topical application on dorsal skin, early-stage model, to week 28) was “no effect on body weight” and the “binding of MEK1/2 to compound-conjugated beads” value (MEK1/2) was “detected in the compound 1-conjugated beads group but not in the beads only group”.
